Reference: ChEMBL document CHEMBL1201862, “PubChem BioAssay data set” (2004)
Calls of active or inactive are those of the source.

Tests used:
Assay type in all cases: functional
[1] = target: T1, Short transient receptor potential channel 4 (Mus musculus, UniProt Q9QUQ5); test: calcium entry via TRPC4 opening agents – cell-based, HEK293 TRPC4/mu-opioid, Fluo-4 calcium, dose response (AID 434937)
T1 sequence (Q9QUQ5 whole entry): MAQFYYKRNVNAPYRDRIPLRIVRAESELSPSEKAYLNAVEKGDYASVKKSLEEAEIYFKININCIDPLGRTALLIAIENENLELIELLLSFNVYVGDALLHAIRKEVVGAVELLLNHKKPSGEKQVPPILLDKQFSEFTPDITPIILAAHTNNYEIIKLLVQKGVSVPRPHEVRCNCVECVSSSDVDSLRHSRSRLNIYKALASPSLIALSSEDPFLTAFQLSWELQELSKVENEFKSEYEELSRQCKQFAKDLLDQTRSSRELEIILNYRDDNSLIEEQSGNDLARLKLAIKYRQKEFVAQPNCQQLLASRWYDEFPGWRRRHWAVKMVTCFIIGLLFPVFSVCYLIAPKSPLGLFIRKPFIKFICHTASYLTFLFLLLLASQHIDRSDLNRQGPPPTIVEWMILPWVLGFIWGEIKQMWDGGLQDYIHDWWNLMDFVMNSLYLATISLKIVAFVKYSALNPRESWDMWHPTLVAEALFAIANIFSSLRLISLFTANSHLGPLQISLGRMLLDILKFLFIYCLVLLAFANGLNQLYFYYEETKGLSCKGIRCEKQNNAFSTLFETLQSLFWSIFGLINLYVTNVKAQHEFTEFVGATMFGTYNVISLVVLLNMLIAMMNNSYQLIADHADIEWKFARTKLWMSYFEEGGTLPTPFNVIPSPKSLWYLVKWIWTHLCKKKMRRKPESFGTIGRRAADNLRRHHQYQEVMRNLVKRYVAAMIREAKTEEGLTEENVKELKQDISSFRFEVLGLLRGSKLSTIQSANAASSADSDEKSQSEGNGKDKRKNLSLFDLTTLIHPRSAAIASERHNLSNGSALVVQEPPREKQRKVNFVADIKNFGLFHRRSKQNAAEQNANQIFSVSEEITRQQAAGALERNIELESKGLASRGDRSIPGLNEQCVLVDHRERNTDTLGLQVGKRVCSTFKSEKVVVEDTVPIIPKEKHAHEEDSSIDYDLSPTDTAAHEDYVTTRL

Coagulation factor XII = target: T2, Coagulation factor XII (Homo sapiens, UniProt P00748);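 also: activated factor XIIa alpha cleaving a fluorogenic AMC peptide substrate; inhibitor potency from loss of enzyme activity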
T2 sequence (P00748 whole entry): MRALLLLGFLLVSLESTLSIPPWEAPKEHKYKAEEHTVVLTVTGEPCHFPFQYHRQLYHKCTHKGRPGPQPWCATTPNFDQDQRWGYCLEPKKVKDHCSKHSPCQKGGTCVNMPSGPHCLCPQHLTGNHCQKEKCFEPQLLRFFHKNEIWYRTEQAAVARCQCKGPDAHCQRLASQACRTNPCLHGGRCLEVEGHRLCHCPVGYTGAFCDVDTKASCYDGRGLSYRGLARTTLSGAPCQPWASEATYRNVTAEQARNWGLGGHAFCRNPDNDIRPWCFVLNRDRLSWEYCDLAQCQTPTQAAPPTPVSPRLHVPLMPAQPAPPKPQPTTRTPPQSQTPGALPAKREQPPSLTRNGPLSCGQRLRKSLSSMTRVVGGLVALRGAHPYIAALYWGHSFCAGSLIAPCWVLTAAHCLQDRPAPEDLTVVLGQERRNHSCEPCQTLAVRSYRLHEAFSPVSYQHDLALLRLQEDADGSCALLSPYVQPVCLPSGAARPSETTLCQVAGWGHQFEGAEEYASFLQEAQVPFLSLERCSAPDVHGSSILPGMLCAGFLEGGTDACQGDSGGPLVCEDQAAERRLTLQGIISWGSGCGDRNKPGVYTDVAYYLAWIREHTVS

[2] = target: T3, Kappa-type opioid receptor (Homo sapiens, UniProt P41145); test: SAR analysis of small molecule antagonists of the kappa opioid receptor via a luminescent beta-arrestin assay - Set 4. [Related pubchem assays (depositor defined):AID1777, AID1778, AID1785, AID1786, AID1966, AID2133, AID2136, AID2285]
T3 sequence (P41145 whole entry): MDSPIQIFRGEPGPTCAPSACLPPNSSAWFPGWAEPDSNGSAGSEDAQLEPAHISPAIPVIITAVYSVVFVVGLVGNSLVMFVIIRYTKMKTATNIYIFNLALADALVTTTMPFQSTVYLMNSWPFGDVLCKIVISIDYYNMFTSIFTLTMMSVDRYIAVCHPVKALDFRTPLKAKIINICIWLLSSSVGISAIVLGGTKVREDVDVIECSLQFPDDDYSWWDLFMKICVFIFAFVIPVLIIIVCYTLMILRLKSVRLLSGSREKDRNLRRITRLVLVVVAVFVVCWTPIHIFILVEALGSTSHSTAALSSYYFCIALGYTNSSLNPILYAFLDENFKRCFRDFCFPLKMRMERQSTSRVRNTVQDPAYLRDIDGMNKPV

[3] = target: T3, Kappa-type opioid receptor; test: SAR analysis of small molecule antagonists of the kappa opioid receptor via a luminescent beta-arrestin assay - Set 5. [Related pubchem assays (depositor defined):AID1778, AID1785]

SMILES	EC50 [1]	IC50 (Coagulation factor XII)	also measured
O=C(Cn1c(-c2ccccc2)c[n+]2ccsc12)c1ccc(Br)cc1	668 nM (active)	–	–
CCCN(CCC)CCCNC(=O)CNC(=O)c1nn(-c2ccc(OC)cc2)c(=O)c2ccccc12	3760 nM (active)	–	–
Cc1c(C(=O)C2=C(O)C(=O)N(CCN3CCOCC3)C2c2cccs2)cnn1-c1ccccc1 (stereo unspecified)	–	> 50 µM (inactive)	–
COc1cc(NC(=O)c2cc3nc(C4CC4)cc(C(F)(F)F)n3n2)c(OC)cc1Cl	–	> 50 µM (inactive)	–
CC(C)N(CCNC(=O)c1ccc(CNS(=O)(=O)Cc2ccccc2)cc1)Cc1ccccc1	–	–	IC50 [2]: 10.3 µM (inactive); IC50 [3]: 3.5 µM (active)
